The values below come from patent US10988523B2, “Modified lipidated Relaxin B chain peptides and their therapeutic use” (Sanofi, priority 2018, dated 2021).

The target of this test is T1, RXFP1 (Homo sapiens, UniProt Q9HBX9).
T1 construct: OVCAR5 cells expressing endogenous RXFP1; endogenous in cells; host or cells: OVCAR5 cells
T1 sequence (Q9HBX9 1-757): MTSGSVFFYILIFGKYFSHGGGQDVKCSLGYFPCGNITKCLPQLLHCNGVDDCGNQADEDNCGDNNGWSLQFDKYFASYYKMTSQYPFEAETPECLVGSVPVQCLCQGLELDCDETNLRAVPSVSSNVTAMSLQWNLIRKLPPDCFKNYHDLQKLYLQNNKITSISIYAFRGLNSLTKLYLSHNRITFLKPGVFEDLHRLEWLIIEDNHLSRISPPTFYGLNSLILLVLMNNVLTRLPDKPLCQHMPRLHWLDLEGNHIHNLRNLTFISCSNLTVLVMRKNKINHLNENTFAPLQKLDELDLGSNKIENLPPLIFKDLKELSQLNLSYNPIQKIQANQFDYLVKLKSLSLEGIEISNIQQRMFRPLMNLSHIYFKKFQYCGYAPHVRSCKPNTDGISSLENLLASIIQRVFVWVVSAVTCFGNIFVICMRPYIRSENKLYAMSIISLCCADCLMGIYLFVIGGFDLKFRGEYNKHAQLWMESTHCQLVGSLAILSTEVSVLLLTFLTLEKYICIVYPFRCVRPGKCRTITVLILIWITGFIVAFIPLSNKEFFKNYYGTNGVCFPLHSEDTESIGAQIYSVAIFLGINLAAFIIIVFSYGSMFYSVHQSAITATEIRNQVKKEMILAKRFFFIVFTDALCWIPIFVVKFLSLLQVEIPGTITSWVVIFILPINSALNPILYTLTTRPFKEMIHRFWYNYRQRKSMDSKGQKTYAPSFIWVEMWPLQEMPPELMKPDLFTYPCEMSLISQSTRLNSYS
Kind of test: OVCAR5 cAMP assay (HTRF), RXFP1 agonist activity. The test is classed as cell-based. The settings on record: for EC50: OVCAR5 cells, cAMP HTRF, read-out: EC50 (nM), OVCAR 5 cells (cAMP); for Emax: OVCAR-5, maximal cAMP relative to H2-relaxin maximum (100%), read-out: EMax, OVCAR 5 cells (cAMP). Summed up:
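OVCAR5 cells (endogenous RXFP1) pretreated 40 min at 37° C with 1 mM IBMX, then exposed to peptides in serum-free medium for 30 min at 37° C. Lysate cAMP read by HTRF; EC50 from variable-slope sigmoidal fit; Emax as % of H2-relaxin maximal cAMP in same run.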

*1 amine or outer side, *2 acyl side, *3 side chain or, on linkers, in order; H or OH if unused. Where a SMILES comes first, the peptide text is derived from it. Side-chain parts run from the residue outwards. [ ]: non-standard residue; d: D form. The star is where a group is joined. γGlu = O=C(O)[C@H](CCC(=O)[*:2])N[*:1]; 1Nal = N[C@@H](Cc1cccc2ccccc12)C(=O)O; Stearoyl = CCCCCCCCCCCCCCCCCC(=O)*; Nle = CCCC[C@H](N)C(=O)O; AEEA = NCCOCCOCC(=O)O; Aib = CC(C)(N)C(=O)O

With `CCCCCCCCCCCCCCCCCC(=O)N[C@@H](CCC(=O)N[C@@H](CCC(=O)N[C@@H](CCC(=O)NCCOCCOCC(=O)NCCOCCOCC(=O)NCCCC[C@H](NC(=O)[C@H](CCCCN)NC(=O)[C@H](CCCNC(=N)N)NC(=O)C(C)(C)NC(=O)[C@H](CO)NC(=O)[C@H](Cc1c[nH]c2ccccc12)NC(=O)[C@@H](NC(=O)[C@H](CO)NC(=O)[C@H](CCCC)NC(=O)CNC(=O)[C@H](CCC(=O)O)NC(=O)C(C)(C)NC(=O)C(C)(C)NC(=O)[C@@H](NC(=O)[C@H](CCCCNC(C)=O)NC(=O)[C@H](C)NC(=O)[C@H](CCCNC(=N)N)NC(=O)[C@@H](NC(=O)[C@H](CCCCN)NC(=O)[C@H](CCC(=O)O)NC(=O)[C@H](CCCNC(=N)N)NC(=O)CNC(=O)[C@H](CCC(=O)O)NC(=O)[C@H](CC(C)C)NC(C)=O)C(C)C)[C@@H](C)CC)[C@@H](C)O)C(N)=O)C(=O)O)C(=O)O)C(=O)O` [compound 73] (Ac-LEGREKVRAK(Ac)I[Aib][Aib]EG[Nle]STWS[Aib]RKK([AEEA-AEEA-γGlu-γGlu-γGlu-Stearoyl])-NH2), the EC50 came out at 0.12 nM and the Emax is 90%.

Consider `CCCCCCCCCCCCCCCCCC(=O)N[C@@H](CCC(=O)N[C@@H](CCC(=O)N[C@@H](CCC(=O)NCCOCCOCC(=O)NCCOCCOCC(=O)NCCOCCOCC(=O)NCCCC[C@H](NC(=O)[C@H](CCCCN)NC(=O)[C@H](CCCCN)NC(=O)[C@H](CCCNC(=N)N)NC(=O)C(C)(C)NC(=O)[C@H](CO)NC(=O)[C@H](Cc1c[nH]c2ccccc12)NC(=O)[C@@H](NC(=O)[C@H](CO)NC(=O)[C@H](CCCC)NC(=O)CNC(=O)[C@H](CCC(=O)O)NC(=O)C(C)(C)NC(=O)C(C)(C)NC(=O)[C@@H](NC(=O)[C@H](CCC(N)=O)NC(=O)[C@H](C)NC(=O)[C@H](CCCNC(=N)N)NC(=O)[C@@H](NC(=O)[C@H](CCCCN)NC(=O)[C@H](CCC(=O)O)NC(=O)[C@H](CCCNC(=N)N)NC(=O)CNC(=O)[C@H](CCC(=O)O)NC(=O)[C@H](CC(C)C)NC(C)=O)C(C)C)[C@@H](C)CC)[C@@H](C)O)C(N)=O)C(=O)O)C(=O)O)C(=O)O` [compound 75] (Ac-LEGREKVRAQI[Aib][Aib]EG[Nle]STWS[Aib]RKKK([AEEA-AEEA-AEEA-γGlu-γGlu-γGlu-Stearoyl])-NH2), for which the EC50 stood at 0.07 nM and the Emax stood at 88%.

For the compound `CCCCCCCCCCCCCCCCCC(=O)N[C@@H](CCC(=O)N[C@@H](CCC(=O)N[C@@H](CCC(=O)NCCOCCOCC(=O)NCCOCCOCC(=O)NCCOCCOCC(=O)NCCCC[C@H](NC(=O)[C@H](CCCCN)NC(=O)[C@H](CCCCN)NC(=O)[C@H](CCCNC(=N)N)NC(=O)C(C)(C)NC(=O)[C@@H](NC(=O)[C@H](Cc1c[nH]c2ccccc12)NC(=O)[C@@H](NC(=O)[C@H](CO)NC(=O)[C@H](CCCC)NC(=O)CNC(=O)[C@H](CCC(=O)O)NC(=O)C(C)(C)NC(=O)C(C)(C)NC(=O)[C@@H](NC(=O)[C@H](CCC(N)=O)NC(=O)[C@H](C)NC(=O)[C@H](CCCNC(=N)N)NC(=O)[C@@H](NC(=O)[C@H](CCCCN)NC(=O)[C@H](CCC(=O)O)NC(=O)[C@H](CCCNC(=N)N)NC(=O)CNC(=O)[C@H](CCC(=O)O)NC(=O)[C@H](CC(C)C)NC(C)=O)C(C)C)[C@@H](C)CC)[C@@H](C)O)[C@@H](C)O)C(N)=O)C(=O)O)C(=O)O)C(=O)O` [compound 76] (Ac-LEGREKVRAQI[Aib][Aib]EG[Nle]STWT[Aib]RKKK([AEEA-AEEA-AEEA-γGlu-γGlu-γGlu-Stearoyl])-NH2), the Emax came out at 89%.

For `CCCCCCCCCCCCCCCCCC(=O)N[C@@H](CCC(=O)N[C@@H](CCC(=O)N[C@@H](CCC(=O)NCCOCCOCC(=O)NCCOCCOCC(=O)NCCOCCOCC(=O)NCCCC[C@H](NC(=O)[C@H](CCCCN)NC(=O)[C@H](CCCCN)NC(=O)[C@H](CCCNC(=N)N)NC(=O)C(C)(C)NC(=O)[C@H](CO)NC(=O)[C@H](Cc1c[nH]c2ccccc12)NC(=O)[C@@H](NC(=O)[C@H](CO)NC(=O)[C@H](CCCC)NC(=O)CNC(=O)[C@H](CCC(=O)O)NC(=O)C(C)(C)NC(=O)C(C)(C)NC(=O)[C@@H](NC(=O)[C@H](CCC(N)=O)NC(=O)[C@H](CC(C)C)NC(=O)[C@H](CCCNC(=N)N)NC(=O)[C@@H](NC(=O)[C@H](CCCCN)NC(=O)[C@H](CCC(=O)O)NC(=O)[C@H](CCCNC(=N)N)NC(=O)CNC(=O)[C@H](CCC(=O)O)NC(=O)[C@H](CC(C)C)NC(C)=O)C(C)C)[C@@H](C)CC)[C@@H](C)O)C(N)=O)C(=O)O)C(=O)O)C(=O)O` [compound 77] (Ac-LEGREKVRLQI[Aib][Aib]EG[Nle]STWS[Aib]RKKK([AEEA-AEEA-AEEA-γGlu-γGlu-γGlu-Stearoyl])-NH2), the Emax stood at 92%.

For `CCCCCCCCCCCCCCCCCC(=O)N[C@@H](CCC(=O)N[C@@H](CCC(=O)N[C@@H](CCC(=O)NCCOCCOCC(=O)NCCOCCOCC(=O)NCCOCCOCC(=O)NCCCC[C@H](NC(=O)[C@H](CCCCNC(C)=O)NC(=O)[C@H](CCCCN)NC(=O)[C@H](CCCNC(=N)N)NC(=O)C(C)(C)NC(=O)[C@H](CO)NC(=O)[C@H](Cc1ccc(O)cc1)NC(=O)[C@@H](NC(=O)[C@H](CO)NC(=O)[C@H](CCCC)NC(=O)CNC(=O)[C@H](CCC(=O)O)NC(=O)C(C)(C)NC(=O)C(C)(C)NC(=O)[C@@H](NC(=O)[C@H](CCCCNC(C)=O)NC(=O)[C@H](C)NC(=O)[C@H](CCCNC(=N)N)NC(=O)[C@@H](NC(=O)[C@H](CCCCN)NC(=O)[C@H](CCC(=O)O)NC(=O)[C@H](CCCNC(=N)N)NC(=O)CNC(=O)[C@H](CCC(=O)O)NC(=O)[C@H](CC(C)C)NC(C)=O)C(C)C)[C@@H](C)CC)[C@@H](C)O)C(N)=O)C(=O)O)C(=O)O)C(=O)O` [compound 78] (Ac-LEGREKVRAK(Ac)I[Aib][Aib]EG[Nle]STYS[Aib]RKK(Ac)K([AEEA-AEEA-AEEA-γGlu-γGlu-γGlu-Stearoyl])-NH2), the EC50 amounted to 1.04 nM and the Emax is 73%.

Regarding `CCCCCCCCCCCCCCCCCC(=O)N[C@@H](CCC(=O)N[C@@H](CCC(=O)N[C@@H](CCC(=O)NCCOCCOCC(=O)NCCOCCOCC(=O)NCCOCCOCC(=O)NCCCC[C@H](NC(=O)[C@H](CCCCN)NC(=O)[C@H](CCCNC(=N)N)NC(=O)C(C)(C)NC(=O)[C@H](CO)NC(=O)[C@H](Cc1cccc2ccccc12)NC(=O)[C@@H](NC(=O)[C@H](CO)NC(=O)[C@H](CCCC)NC(=O)CNC(=O)[C@H](CCC(=O)O)NC(=O)C(C)(C)NC(=O)C(C)(C)NC(=O)[C@@H](NC(=O)[C@H](CCCCNC(C)=O)NC(=O)[C@H](C)NC(=O)[C@H](CCCNC(=N)N)NC(=O)[C@@H](NC(=O)[C@H](CCCCN)NC(=O)[C@H](CCC(=O)O)NC(=O)[C@H](CCCNC(=N)N)NC(=O)CNC(=O)[C@H](CCC(=O)O)NC(=O)[C@H](CC(C)C)NC(C)=O)C(C)C)[C@@H](C)CC)[C@@H](C)O)C(N)=O)C(=O)O)C(=O)O)C(=O)O` [compound 79] (Ac-LEGREKVRAK(Ac)I[Aib][Aib]EG[Nle]ST[1Nal]S[Aib]RKK([AEEA-AEEA-AEEA-γGlu-γGlu-γGlu-Stearoyl])-NH2), the EC50 stood at 0.4 nM and the Emax came to 75%.

On to `CCCCCCCCCCCCCCCCCC(=O)N[C@@H](CCC(=O)N[C@@H](CCC(=O)N[C@@H](CCC(=O)NCCOCCOCC(=O)NCCOCCOCC(=O)NCCOCCOCC(=O)NCCCC[C@H](NC(=O)[C@H](CCCCN)NC(=O)[C@H](CCCNC(=N)N)NC(=O)C(C)(C)NC(=O)[C@H](CO)NC(=O)[C@H](Cc1cccc2ccccc12)NC(=O)[C@@H](NC(=O)[C@H](CO)NC(=O)[C@H](CCCC)NC(=O)CNC(=O)[C@H](CCC(=O)O)NC(=O)C(C)(C)NC(=O)C(C)(C)NC(=O)[C@@H](NC(=O)[C@H](CCCCNC(C)=O)NC(=O)C(C)(C)NC(=O)[C@H](CCCNC(=N)N)NC(=O)[C@@H](NC(=O)[C@H](CCCCN)NC(=O)[C@H](CCC(=O)O)NC(=O)[C@H](CCCNC(=N)N)NC(=O)CNC(=O)[C@H](CCC(=O)O)NC(=O)[C@H](CC(C)C)NC(C)=O)C(C)C)[C@@H](C)CC)[C@@H](C)O)C(N)=O)C(=O)O)C(=O)O)C(=O)O` [compound 80] (Ac-LEGREKVR[Aib]K(Ac)I[Aib][Aib]EG[Nle]ST[1Nal]S[Aib]RKK([AEEA-AEEA-AEEA-γGlu-γGlu-γGlu-Stearoyl])-NH2), for which the Emax was determined as 68%.

Broadly, the EC50 is the midpoint of the concentration-response curve. Broadly, the Emax is the size of the effect at its maximum, as opposed to the concentration needed.
